Data on 16 molecules can be found in patent publication US8710233B2 (Gruenenthal GmbH, priority 2005, dated 2014).

The target in one experiment is VR1/TRPV1 receptor (Homo sapiens, UniProt Q8NER1). Nature of the experiment: IC50 (human) after pH stimulus. The experiment is classed as cell-based. The conditions noted are these: for IC50: table 4.
The test system of experiment [1] is formaldehyde induced nociceptive behaviour. The experiment is described as follows: Formaldehyde test in mice, second (late) phase. The experiment is classed as in vivo, mouse. To be noted: for inhibition in vivo at 0.3 mg/kg / inhibition in vivo at 0.1 mg/kg / inhibition in vivo at 1 mg/kg: read-out: inhibition formaldehyde test (n = 10); for inhibition in vivo at 0.1 mg/kg: 0.1 mg/kg body weight po.

The target of experiment [2] is T1, vanilloid receptor 1 (VR1/TRPV1) of the rat species (Rattus norvegicus, UniProt O35433).
T1 construct: The spinal column is removed from decapitated rats; from tissue; host or cells: primary cells dissociated from rat dorsal root ganglia
Nature of the experiment: FLIPR Ca2+ influx assay on rat dorsal root ganglia cells (pharmacological method I). The experiment is classed as cell-based. To be noted: for Ki: table 4, capsaicin, read-out: Ki (rat) Cap. The essentials: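 Primary rat dorsal root ganglion cells loaded with 2 μM Fluo-4, Ca2+ influx read on FLIPR as peak fluorescence. Triplicates, at least 3 independent experiments.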

Another experiment has as its target T2, vanilloid receptor (VR1) (Homo sapiens, UniProt Q8NER1).
T2 construct: expressed in transfected cells; host or cells: CHO K1 cells (ECACC), stably transfected
The experiment is described as follows: FLIPR Ca2+ influx assay on CHO K1 cells transfected with the VR1 gene (pharmacological method II). It is filed as cell-based. The conditions noted are these: table 4; capsaicin; read-out: Ki (human) Cap.

Experiment [3] has as its system capsaicin induced hypothermie. The experiment is described as follows: Hypothermie assay in the mouse (capsaicin induced hypothermie). To be noted: for inhibition in vivo at 0.3 mg/kg / inhibition in vivo at 1 mg/kg: read-out: inhibition hypothermie (n = 5). It is filed as in vivo.
[4] abbreviates: 0.3 mg/kg body weight po, mouse.

Read-outs that look alike come from different tables or passages of the source.

T1 sequence (O35433 whole entry): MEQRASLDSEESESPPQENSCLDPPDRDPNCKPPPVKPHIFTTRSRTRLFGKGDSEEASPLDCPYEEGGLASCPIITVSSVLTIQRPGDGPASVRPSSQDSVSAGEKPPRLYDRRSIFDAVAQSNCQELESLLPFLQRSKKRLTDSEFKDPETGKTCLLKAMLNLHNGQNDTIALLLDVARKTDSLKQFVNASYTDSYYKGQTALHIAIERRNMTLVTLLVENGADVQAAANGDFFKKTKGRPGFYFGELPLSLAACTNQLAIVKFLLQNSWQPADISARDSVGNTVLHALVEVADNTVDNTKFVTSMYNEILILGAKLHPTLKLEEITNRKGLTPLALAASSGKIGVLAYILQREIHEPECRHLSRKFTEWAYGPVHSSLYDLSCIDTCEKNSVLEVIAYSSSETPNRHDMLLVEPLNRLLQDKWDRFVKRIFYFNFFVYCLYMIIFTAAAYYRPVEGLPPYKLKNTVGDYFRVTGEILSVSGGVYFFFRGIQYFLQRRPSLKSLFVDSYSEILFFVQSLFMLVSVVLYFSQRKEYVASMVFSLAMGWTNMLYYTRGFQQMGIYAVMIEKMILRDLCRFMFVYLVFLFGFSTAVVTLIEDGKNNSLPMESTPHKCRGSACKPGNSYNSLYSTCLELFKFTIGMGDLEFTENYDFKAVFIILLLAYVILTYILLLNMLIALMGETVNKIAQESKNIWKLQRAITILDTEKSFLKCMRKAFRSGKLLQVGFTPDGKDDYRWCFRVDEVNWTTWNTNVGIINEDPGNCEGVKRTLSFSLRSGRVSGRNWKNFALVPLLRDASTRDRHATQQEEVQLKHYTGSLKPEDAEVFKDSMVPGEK
Sequence of VR1/TRPV1 receptor (Q8NER1 whole entry): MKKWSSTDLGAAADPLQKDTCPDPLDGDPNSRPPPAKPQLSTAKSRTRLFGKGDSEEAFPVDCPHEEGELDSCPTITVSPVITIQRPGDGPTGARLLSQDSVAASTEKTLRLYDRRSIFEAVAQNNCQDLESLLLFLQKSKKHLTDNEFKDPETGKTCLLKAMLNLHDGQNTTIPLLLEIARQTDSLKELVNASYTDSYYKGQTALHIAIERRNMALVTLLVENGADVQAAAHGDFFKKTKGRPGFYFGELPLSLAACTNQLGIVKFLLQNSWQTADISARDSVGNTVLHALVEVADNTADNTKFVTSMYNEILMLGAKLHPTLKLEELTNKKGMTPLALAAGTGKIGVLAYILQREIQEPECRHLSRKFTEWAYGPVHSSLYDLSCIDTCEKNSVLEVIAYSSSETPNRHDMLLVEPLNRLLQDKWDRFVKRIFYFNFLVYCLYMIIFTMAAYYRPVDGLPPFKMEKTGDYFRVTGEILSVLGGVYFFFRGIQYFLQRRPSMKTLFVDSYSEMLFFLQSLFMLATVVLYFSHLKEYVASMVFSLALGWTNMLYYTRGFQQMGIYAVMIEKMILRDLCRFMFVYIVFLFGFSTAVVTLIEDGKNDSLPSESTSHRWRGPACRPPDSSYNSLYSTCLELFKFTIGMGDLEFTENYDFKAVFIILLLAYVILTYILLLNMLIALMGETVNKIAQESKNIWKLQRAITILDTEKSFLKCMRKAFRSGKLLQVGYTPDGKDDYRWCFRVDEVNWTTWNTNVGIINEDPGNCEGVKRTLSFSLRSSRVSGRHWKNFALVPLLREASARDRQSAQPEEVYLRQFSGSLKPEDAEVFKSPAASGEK
T2 sequence (Q8NER1 whole entry): as above

`CC(C(=O)NCc1ccc(C(F)(F)Cl)nc1OC1CCCCC1)c1ccc(NS(C)(=O)=O)c(F)c1` (stereo not shown) [Example 168, N-[6-(chloro-difluoro-methyl)-2-cyclohexyloxy-pyridin-3-ylmethyl]-2-(3-fluoro-4-methylsulfonamido-phenyl)-propionamide] gave an IC50 against VR1/TRPV1 receptor of 17.6 nM. The inhibition in vivo at 0.3 mg/kg in experiment [1] (setting [4]) was 1%; in experiment [3] (setting [4]), 21%. The Ki came out at 1.4 nM in experiment [2] and 0.9 nM on vanilloid receptor (VR1).
Turning to `CC(C(=O)NCc1ccc(C(F)(F)F)nc1OCCc1ccccc1)c1ccc(NS(C)(=O)=O)c(F)c1` (stereo not shown) [Example 178, 2-(3-fluoro-4-methylsulfonamido-phenyl)-N-(2-phenethyloxy-6-trifluoromethyl-pyridin-3-ylmethyl)-propionamide], the inhibition in vivo at 0.3 mg/kg in experiment [1] (setting [4]) is 16%; in experiment [3] (setting [4]), 42%. Besides, in experiment [2], the inhibitory constant (Ki) was determined as 1.9 nM.
As to `CCCCN(C)c1nc(C(F)(F)F)ccc1CNC(=O)C(C)c1ccc(NS(C)(=O)=O)c(F)c1` (stereo not shown) [Example 167, N-[2-(butyl-methyl-amino)-6-trifluoromethyl-pyridin-3-ylmethyl]-2-(3-fluoro-4-methylsulfonamido-phenyl)-propionamide], the IC50 on VR1/TRPV1 receptor worked out at 21.3 nM. The inhibition in vivo at 0.1 mg/kg in experiment [1] (mouse) was 62%. For the same molecule, the Ki in experiment [2] amounted to 2.8 nM; at vanilloid receptor (VR1), 0.8 nM. Further, in experiment [3] (setting [4]), the inhibition in vivo at 0.3 mg/kg was 19%.
`CC1CCN(c2nc(C(F)(F)F)ccc2CNC(=O)C(C)c2ccc(NS(C)(=O)=O)c(F)c2)CC1` (stereo not shown) [Example 80, 2-(3-fluoro-4-methylsulfonamido-phenyl)-N-(2-4-methylpiperidin-1-yl-6-trifluoromethyl-pyridin-3-ylmethyl)-propionamide] displayed an IC50 at VR1/TRPV1 receptor of 5.4 nM. In addition, the inhibition in vivo at 0.3 mg/kg was found to be 58% in experiment [1] (setting [4]) and 66% in experiment [3] (Mus musculus, po). For the same molecule, the results for the Ki (in experiment [2]; on vanilloid receptor (VR1)) were 0.6 nM and 0.3 nM, respectively.
Take `CC(C)CCOc1nc(C(C)(C)C)ccc1CNC(=O)C(C)c1ccc(NS(C)(=O)=O)c(F)c1` (stereo not shown) [Example 329, N-[6-tert-butyl-2-(3-methyl-butoxy)-pyridin-3-ylmethyl]-2-(3-fluoro-4-methylsulfonamido-phenyl)-propionamide]: half-maximal inhibition on VR1/TRPV1 receptor (IC50) was put at 179 nM. Moreover, the inhibition in vivo at 1 mg/kg in experiment [1] (1 mg/kg body weight po, mouse) worked out at 54%; in experiment [3] (1 mg/kg body weight po, mouse) it was 7%. Further, the Ki on vanilloid receptor (VR1) was 0.8 nM.
On to `CC(C(=O)NCc1ccc(C(F)(F)F)nc1OCc1ccncc1)c1ccc(NS(C)(=O)=O)c(F)c1` (stereo not shown) [Example 177, 2-(3-fluoro-4-methylsulfonamido-phenyl)-N-[2-(pyridin-4-ylmethoxy)-6-trifluoromethyl-pyridin-3-ylmethyl]-propionamide], for which, at VR1/TRPV1 receptor, the midpoint of inhibition, the IC50, lay at 1290 nM. Further, the inhibition in vivo at 0.3 mg/kg came out at 31% in experiment [1] (setting [4]) and 14% in experiment [3] (setting [4]). For the same molecule, in experiment [2] (read-out: inhibition in percent, Ki (rat) Cap.), the inhibition at 1 µM was 34%. Further, the Ki on vanilloid receptor (VR1) is 51 nM.
On VR1/TRPV1 receptor, `CC1CCN(c2cc(C(F)(F)F)ccc2CNC(=O)C(C)c2ccc(NS(C)(=O)=O)c(F)c2)CC1` (stereo not shown) [Example 82, 2-(3-Fluor-4-(methylsulfonamido)phenyl)-N-(2-(4-methylpiperidin-1-yl)-4-(trifluoromethyl)benzyl)propanamide] returned an IC50 of 16.2 nM. Moreover, the “inhibition formaldehyde test (n = 10)” value in experiment [1] (setting [4]) was 0.3 po 39%. The Ki came out at 0.7 nM in experiment [2] and 0.9 nM at vanilloid receptor (VR1). Besides, the “inhibition hypothermie (n = 5)” value in experiment [3] (setting [4]) amounted to 0.3 po 53%.
As to `CCCCOc1cc(C(C)(C)C)ccc1CNC(=O)C(C)c1ccc(NS(C)(=O)=O)c(F)c1` (stereo not shown) [Example 108, N-(2-butoxy-4-tert-butyl-benzyl)-2-(3-fluoro-4-methylsulfonamido-phenyl)-propionamide], at VR1/TRPV1 receptor, the IC50 came to 114 nM. Besides, the inhibition in vivo at 0.3 mg/kg in experiment [1] (setting [4]) came to 15%; in experiment [3] (setting [4]), 38%. In addition, the Ki in experiment [2] came to 0.6 nM; on vanilloid receptor (VR1) it was 1.4 nM.
On VR1/TRPV1 receptor, `CC(C(=O)NCc1ccc(C(F)(F)Cl)nc1OCc1ccccn1)c1ccc(NS(C)(=O)=O)c(F)c1` (stereo not shown) [Example 182, N-[6-(chloro-difluoro-methyl)-2-(pyridin-2-ylmethoxy)-pyridin-3-ylmethyl]-2-(3-fluoro-4-methylsulfonamido-phenyl)-propionamide] came in with an IC50 of 637 nM. For the same molecule, the inhibition in vivo at 0.3 mg/kg is 1% in experiment [1] (setting [4]) and 45% in experiment [3] (setting [4]). In addition, the Ki is 7.3 nM in experiment [2] and 4.2 nM at vanilloid receptor (VR1).
Molecule `Cc1cc(C(C)C(=O)NCc2ccc(C(F)(F)F)nc2N2CCCCC2)ccc1NS(C)(=O)=O` (stereo not shown) [Example 127, 2-(4-methylsulfonamido-3-methyl-phenyl)-N-(6′-trifluoromethyl-3,4,5,6-tetrahydro-2H-[1,2′]bipyridinyl-3′-ylmethyl)-propionamide] showed an IC50 against VR1/TRPV1 receptor of 15.4 nM. The inhibition in vivo at 0.3 mg/kg in experiment [1] (setting [4]) is 22%; in experiment [3] (setting [4]), 6%. For the same molecule, the results for the Ki (in experiment [2]; on vanilloid receptor (VR1)) were 0.6 nM and 0.5 nM, respectively.
For the molecule `CC(C(=O)NCc1ccc(C(F)(F)F)nc1N1CCCC1)c1ccc(NS(C)(=O)=O)c(Br)c1` (stereo not shown) [Example 103, 2-(3-bromo-4-methylsulfonamido-phenyl)-N-(2-pyrrolidin-1-yl-6-trifluoromethyl-pyridin-3-ylmethyl)-propionamide], on VR1/TRPV1 receptor (@ 10 μM, read-out: inhibition in percent, IC50 (human) after pH stimulus), the inhibition at 10 µM was found to be 16%. In addition, the values for the inhibition in vivo at 0.3 mg/kg in experiment [1] (setting [4]) and in experiment [3] (setting [4]) were 36% and 39%, respectively. Moreover, the Ki is 4.9 nM in experiment [2] and 2.8 nM on vanilloid receptor (VR1).
With `CC(C(=O)NCc1ccc(C(F)(F)F)nc1N1CCC(c2ccccc2)(N(C)C)CC1)c1ccc(NS(C)(=O)=O)c(F)c1` (stereo not shown) [Example 330, N-(4-dimethylamino-4-phenyl-6′-trifluoromethyl-3,4,5,6-tetrahydro-2H-[1,2′]bipyridinyl-3′-ylmethyl)-2-(3-fluoro-4-methylsulfonamido-phenyl)-propionamide], the inhibition in vivo at 1 mg/kg in experiment [1] (Mus musculus, po) was determined as 54%; in experiment [3] (Mus musculus, po) it was 7%.
As for `CC(C(=O)NCc1ccc(C(F)(F)F)nc1-c1cccc(F)c1)c1ccc(NS(C)(=O)=O)c(F)c1` (stereo not shown) [Example 148, 2-(3-fluoro-4-methylsulfonamido-phenyl)-N-[2-(3-fluoro-phenyl)-6-trifluoromethyl-pyridin-3-ylmethyl]-propionamide], the IC50 at VR1/TRPV1 receptor is 63.6 nM. For the same molecule, the inhibition in vivo at 0.3 mg/kg worked out at 44% in experiment [1] (setting [4]) and 45% in experiment [3] (setting [4]). Moreover, the Ki in experiment [2] came to 1.1 nM; at vanilloid receptor (VR1), 1.3 nM.
Molecule `CCCCOC1CCN(c2nc(C(F)(F)F)ccc2CNC(=O)C(C)c2ccc(NS(C)(=O)=O)c(F)c2)CC1` (stereo not shown) [Example 160, N-(4-butoxy-6′-trifluoromethyl-3,4,5,6-tetrahydro-2H-[1,2′]bipyridinyl-3′-ylmethyl)-2-(3-fluoro-4-methylsulfonamido-phenyl)-propionamide] came in with an IC50 against VR1/TRPV1 receptor of 28.2 nM. The inhibition in vivo at 0.3 mg/kg in experiment [1] (setting [4]) was 10%; in experiment [3] (setting [4]), 28%. Besides, the Ki in experiment [2] came out at 3 nM; on vanilloid receptor (VR1), 3.5 nM.
As to `CC(C(=O)NCc1ccc(C(C)(C)C)nc1OC1CCCC1)c1ccc(NS(C)(=O)=O)c(F)c1` (stereo not shown) [Compound 234], in experiment [1] (mouse), the inhibition in vivo at 0.1 mg/kg amounted to 28%. Further, the results for the inhibition in vivo at 0.3 mg/kg in experiment [1] (setting [4]) and in experiment [3] (setting [4]) were 41% and 31%, respectively. Further, in experiment [1] (1 mg/kg body weight po, mouse), the inhibition in vivo at 1 mg/kg turned out to be 44%.
On to `CC(C(=O)NCc1ccc(C(F)(F)F)cc1N1CCCCCCC1)c1ccc(NS(C)(=O)=O)c(F)c1` (stereo not shown) [Compound 217], for which, in experiment [1] (1 mg/kg body weight po, mouse), the inhibition in vivo at 1 mg/kg amounted to 37%. Further, in experiment [3] (setting [4]), the inhibition in vivo at 0.3 mg/kg was 97%.
